Patent publication US20220296620A1, “AGENT FOR PREVENTING OR TREATING MILD COGNITIVE IMPAIRMENT” (NATIONAL UNIVERSITY CORPORATION TOKYO MEDICAL AND DENTAL …, priority 2019, published 2022)

Key:
[1] = system: nuclear YAP in brain neurons of 5×FAD mice; test: Amounts of nuclear YAP in brain neurons by immunohistochemical staining; assay type: in vivo, mouse; settings: 5×FAD mice given at 1 month of age, measured at 6 months of age, vs 5×FAD mice without administration (FIG. 10)
Description: (§1) Brain tissues were excised from the test subjects or the AD mouse models and fixed in a 4% PFA (paraformaldehyde) solution. Then, 5 µm thick paraffin sections were prepared using a microtome (manufactured by Yamato Kohki Industrial Co., Ltd.). […] Fluorescence signals derived from each primary antibody were detected using a fluorescence microscope (IX70, manufactured by Olympus Corp.) or a confocal laser scanning microscope (FV1200, manufactured by Olympus Corp.) to obtain images (specifically, YAP images, phosphorylated LATS1 serine 909 (Ser909) [pLATS1] images, images of the detected DAPI fluorescence signals derived from the cells nuclei (DAPI images), and overlaid images thereof (merged images). In the DAPI images, cells having the deformed and/or shrunk cell nuclei were evaluated as necrotic cells, and the numbers of necrotic cells in 30 fields of view (143 μm×143 μm) were measured to calculate a necrotic cell number per field of view (see the ordinates of FIGS. 5A to 5C). […]

[2] = system: extracellular amyloid β in brain tissues of 5×FAD mice; test: Extracellular amyloid β levels of brain tissues by immunohistochemical staining; assay type: in vivo, mouse; settings: 5×FAD mice given at 1 month of age, measured at 6 months of age, vs 5×FAD mice without administration (FIG. 11)
Description: as §1

[3] = system: ER in brain neurons of 5×FAD mice; test: In vivo imaging of ER volumes in brain neurons (ER-Tracker Red); set-up: species or system mouse; settings: 5×FAD mice given at 1 month of age, measured at 6 months of age (FIGS. 13 and 15)
Description: The skull bones on RSD surface of normal mice (non-transgenic B6/SJL mice) or 5×FAD mice were removed using a high-speed microdrill. 1 μL of a liquid containing 100 nM amyloid-binding substance BTA1 (2-(4′-(methylamino)phenyl) benzothiazole, manufactured by Sigma-Aldrich Co. LLC) and 100 nM ER-Tracker Red (E34250, manufactured by Thermo
Fisher Scientific Inc.) was injected to RSD in the presence of 1% isoflurane (anesthetic). 4 hours later, ER-Tracker Red was imaged using an upright microscope (BX61WI, manufactured by Olympus Corp.) and a scanning laser microscope system FV1000MPE2 (manufactured by Olympus Corp.) equipped with an immersion objective lens (XLPlanN25xW, numerical aperture: 1.05) and a pulse laser (MaiTaiHP DeepSee, manufactured by Spectra-Physics, Inc.) to obtain images of detected BTA1 fluorescence signals (BTA1 images) and images of detected ER-Tracker Red fluorescence signals (ER-Tracker images). The fluorescence signal volumes of ER-Tracker Red (i.e., volumes of ER) were measured. […]

[4] = system: pSer46-MARCKS in brain neurons of 5×FAD mice; test: pSer46-MARCKS levels of brain neurons by immunohistochemical staining; assay type: in vivo, mouse; settings: 5×FAD mice given at 1 month of age, measured at 6 months of age, vs 5×FAD mice without administration (FIG. 16)
5×FAD mice = test: Cognitive function analysis, Y-shaped maze score of alternation behavior; assay type: in vivo, mouse; settings: tested at 6 months of age
Description: The administration of AAV-YAPΔC-ins61 or AAV-NINS (titer: 1×10^10 vector genomes/mL each, 1 μL) to mouse RSD (retrosplenial cortex) (depth of −2.0 mm from the bregma and 0.6 mm mediolaterally) and the subarachnoidal administration of S1P (40 nM, 0.15 μL/hr; manufactured by Sigma-Aldrich Co. LLC) or control artificial cerebrospinal fluid (aCSF) (0.15 μL/hr; manufactured by Alzet Osmotic Pressures) to the mice were performed according to the method described in the document “Yang, G. et al., Nat Protoc 5, 201-208 (2010)”. The administration of AAV-YAPΔC-ins61 or AAV-NINS to the mice was performed at 1 or 5 months of age. The administration of S1P to the mice was continuously performed for a period from 1 to 6 months of age or for a period from 5 to 6 months of age.
The normal mice (non-transgenic B6/SJL mice) or the 5×FAD mice given AAV-YAPΔC-ins61 or AAV-NINS, or S1P were tested for their exploratory behavior when aged 6 months using a Y-shaped maze (manufactured by O'HARA & Co., Ltd.) in which three arms of the same size were joined at […]
A value obtained by dividing the number of movements from the immediately preceding arm where the mouse stayed to an arm different from the immediately preceding arm where the mouse stayed by the number of movements in the arms was calculated as the rate of spontaneous alternation (score of alternation behavior; see FIG. 14).

With `CCCCCCCCCCCCC/C=C/[C@@H](O)[C@@H](N)COP(=O)(O)O` [SiP, sphingosine 1-phosphate] the “amounts of nuclear YAP in brain neurons” value [1] was “increased and/or restored to the levels of normal mice”, the “extracellular amyloid β levels of brain tissues” value [2] was “lower” and the “ER dilation and instability in brain neurons” value [3] was “significantly resolved ER dilation and instability”. The “pSer46-MARCKS levels of brain neurons” value [4] was “decreased to the levels of normal mice”, the “cognitive functions (score of alternation behavior, Y-shaped maze)” value (5×FAD mice; 5×FAD mice given at 1 month of age, vs 5×FAD mice without administration (FIGS. 17A and 17B)) was “equivalent to the ones of normal mice” and the “cognitive functions (score of alternation behavior, Y-shaped maze)” value (5×FAD mice; 5×FAD mice given at 5 months of age, vs 5×FAD mice without administration (FIGS. 17C and 17D)) was “equivalent to the ones of normal mice”.
